Consider 3 molecules from patent US20240293400A1, “NOVEL AZAINDOLE DERIVATIVES AS ANTIVIRAL AGENTS” (Centre National de la Recherche Scientifique, priority 2021, published 2024).

Molecules are shown by their SMILES.

One assay deals with Axl (Homo sapiens (Human), UniProt P30530). The assay can be described thus: Inhibition of the phosphorylation of the kinase Axl in cellulo (immunoblot, Y779). The class given is cell-based. Conditions: A549 cells, 2.5 μM compound 1 hour, 1 mM pervanadate 5 min. Here is the method: FIG. 1: […] The A549 cells were preincubated for 1 hour with 2.5 μM of compounds targeting Axl. They were then stimulated for 5 min with 1 mM of pervanadate. The evaluation of the inhibition of the phosphorylation of the […] residue of the intracytoplasmic domain of Axl kinase is carried out by immunoblot using the antibody R&D Systems (AF2228) and measuring the intensity of the signals by densitometry (Image J) (P-Axl/Axl ratio). The A549 cells were preincubated for 1 hour with 2.5 μM of compound 1, 2, or 3. They were then stimulated for 5 min with 1 mM pervanadate, a compound known to activate the kinase Axl by phosphorylation. The inhibition of the phosphorylation of the […] residue of the intracytoplasmic domain of Axl is visualized by immunoblot using the antibody R&D Systems (AF2228).
A general note: In western blotting, separated proteins are transferred to a membrane and probed.

The target in a further assay is AURKA (Aurora A) (Homo sapiens (Human), UniProt O14965). The assay is described as follows: Kinase panel Z'-LYTE/Adapta SelectScreen. The class given is biochemical. Conditions: 100 nM in 1% DMSO. How it is done:
(§1) The inhibitory activity of the compounds on a panel of kinases including, inter alia, AXL and FLT3 was evaluated by Thermo Fisher Scientific using Z′-LYTE® and Adapta® Select Screen technology.
(§2) The fluorescence-based biochemical test uses coupled enzymes and is based on the difference in sensitivity of the phosphorylated and non-phosphorylated peptides to proteolytic cleavage. The peptide substrate is labeled with 2 fluorophores—one at each end—allowing fluorescence transfer (FRET).
(§3) Compounds 1, 2 and 3 are tested in wells at the final concentration of 100 nM in 1% DMSO.

In the next assay the target is AURKB (Aurora B) (Homo sapiens (Human), UniProt Q96GD4). The assay is described as follows: Kinase panel Z'-LYTE/Adapta SelectScreen. The class given is biochemical. Conditions: 100 nM in 1% DMSO. How it is done:
as §1, §2, §3

For another assay, the target named is CSF1R (FMS) (Homo sapiens (Human), UniProt P07333). The assay is described as follows: Kinase panel Z'-LYTE/Adapta SelectScreen. The class given is biochemical. Conditions: 100 nM in 1% DMSO. Here is the method: as §1, §2, §3
The target in a further assay is FGFR2 (Homo sapiens (Human), UniProt P21802). The assay is described as follows: Kinase panel Z'-LYTE/Adapta SelectScreen. The class given is biochemical. Conditions: 100 nM in 1% DMSO. Here is the method: as §1, §2, §3
A further assay concerns the target JAK3 (Homo sapiens (Human), UniProt P52333). The assay is described as follows: Kinase panel Z'-LYTE/Adapta SelectScreen. The format is biochemical. Conditions: 100 nM in 1% DMSO. How it is done:
as §1, §2, §3

A further assay has as its target KDR (VEGFR2) (Homo sapiens (Human), UniProt P35968). The assay is described as follows: Kinase panel Z'-LYTE/Adapta SelectScreen. The format is biochemical. The following applies: 100 nM in 1% DMSO. How it is done:
as §1, §2, §3

A further assay has as its target LCK (Homo sapiens (Human), UniProt P06239). The assay can be described thus: Kinase panel Z'-LYTE/Adapta SelectScreen. The class given is biochemical. Conditions: 100 nM in 1% DMSO. Here is the method:
as §1, §2, §3

The target in the next assay is PRKAA (PKA) (Homo sapiens (Human), UniProt P17612). The assay is described as follows: Kinase panel Z'-LYTE/Adapta SelectScreen. The class given is biochemical. Conditions: 100 nM in 1% DMSO. Here is the method:
as §1, §2, §3

Another assay has as its target PTK2 (FAK) (Homo sapiens (Human), UniProt Q05397). The assay is described as follows: Kinase panel Z'-LYTE/Adapta SelectScreen. The class given is biochemical. The following applies: 100 nM in 1% DMSO. How it is done:
as §1, §2, §3

A further assay concerns the target ROS1 (Homo sapiens (Human), UniProt P08922). The assay is described as follows: Kinase panel Z'-LYTE/Adapta SelectScreen. The class given is biochemical. The following applies: 100 nM in 1% DMSO. Here is the method:
as §1, §2, §3

The target in another assay is TEK (Tie2) (Homo sapiens (Human), UniProt Q02763). The assay is described as follows: Kinase panel Z'-LYTE/Adapta SelectScreen. The format is biochemical. Conditions: 100 nM in 1% DMSO. How it is done: as §1, §2, §3
In a further assay the target is ZAP70 (Homo sapiens (Human), UniProt P43403). The assay can be described thus: Kinase panel Z'-LYTE/Adapta SelectScreen. The format is biochemical. Conditions: 100 nM in 1% DMSO. How it is done:
as §1, §2, §3

A further assay concerns ZIKV BeH8 strain. The assay is described as follows: Antiviral activity against the Zika virus in HeLa cells. The format is cell-based. The following applies: for concentration at which infection of the Hela cells by the strain ZIKV BeH-8 is prevented: 24 h, qRT-PCR; for concentration at which infection of the Hela cells by the strain ZIKV BeH-8 is prevented / IC50: HeLa cells; for IC50: BeH-8 strain, MOI=0.1, 24 h; for active on infectious model ZIKV: summary table.

Assay [1] has as its system SARS-COV-2 virus, BetaCoV/France/IDF0371/2020. The assay can be described thus: Anti-SARS-COV-2 activity in VeroE6 cells. The class given is cell-based. Conditions: MOI=0.01, 24 hours, qRT-PCR; for infection of the VeroE6 cells by the SARS-COV-2 virus: 1.25 μM; for IC50: Vero E6 cells. How it is done: FIG. 7: Anti-SARS-COV-2 activity of compounds 1, 2, 3, 10 and 14 determined in the VeroE6 line. The cells were preincubated for 1 hour with compounds at a concentration of 1.25 μM, then infected with the viral strain BetaCoV/France/IDF0371/2020 (MOI=0.01). The cells were kept in culture for 24 hours in the presence of the compound. The residual viral replication is measured by quantification of the viral RNA in the cell culture by qRT-PCR. The control condition is obtained by incubation of cells in the presence of the dilution solvent DMSO (0). The values are averages of triplicates+standard deviation.
The inhibitory activity of the compounds of the invention on the infection by SARS-COV-2 was evaluated in vitro by infection of three relevant lines for the study of this pathogen: the green monkey line VeroE6 (immortalized kidney epithelium, ATCC #CRL-1586), the A549-ACE2 line produced by transfection of the ACE2 receptor in the A549 line (pulmonary epithelial carcinoma; ATCC #CCL-185), commercial primary bronchial epithelium cells (Mucilair Epithelix).
The infection tests are carried out by preincubating 4×10^4 VeroE6 or A549-ACE2 cells, cultivated in a 96-well plate, with the indicated concentrations of compounds for 1 hour. The cells are cultivated in a 5% CO2 atmosphere in a Dulbecco's modified Eagle's medium (DMEM) comprising 2% calf serum and 1% penicillin/streptomycin. The cells were then exposed to the SARS-COV-2 virus, BetaCoV/France/IDF0371/2020 (MOI=0.01) for 2 hours in the presence of the compounds before elimination of the innoculum, washing and culturing the cells in the presence of the compounds. 24 h after the viral challenge, the infection is quantified by amplification of the viral RNA by qRT-PCR using the Luna Universal One-Step RT-PCR kit. The values (DCT) are normalized by the GAPDH mRNA. The values represented are averages of triplicates+standard deviation. The control conditions were carried out by incubating the cells in the presence of DMSO, the solvent used for the solubilization of the compounds tested. The volumes of DMSO used under these conditions correspond to the volumes provided by the compounds under the test conditions.
IC50 compounds 1, 2 and 3 were determined on the VeroE6 and A549-ACE2 cells using the software Graphpad Prism.
Background: In qPCR the cycle at which signal appears reflects the starting amount.

JAK3, sequence (P52333 whole entry): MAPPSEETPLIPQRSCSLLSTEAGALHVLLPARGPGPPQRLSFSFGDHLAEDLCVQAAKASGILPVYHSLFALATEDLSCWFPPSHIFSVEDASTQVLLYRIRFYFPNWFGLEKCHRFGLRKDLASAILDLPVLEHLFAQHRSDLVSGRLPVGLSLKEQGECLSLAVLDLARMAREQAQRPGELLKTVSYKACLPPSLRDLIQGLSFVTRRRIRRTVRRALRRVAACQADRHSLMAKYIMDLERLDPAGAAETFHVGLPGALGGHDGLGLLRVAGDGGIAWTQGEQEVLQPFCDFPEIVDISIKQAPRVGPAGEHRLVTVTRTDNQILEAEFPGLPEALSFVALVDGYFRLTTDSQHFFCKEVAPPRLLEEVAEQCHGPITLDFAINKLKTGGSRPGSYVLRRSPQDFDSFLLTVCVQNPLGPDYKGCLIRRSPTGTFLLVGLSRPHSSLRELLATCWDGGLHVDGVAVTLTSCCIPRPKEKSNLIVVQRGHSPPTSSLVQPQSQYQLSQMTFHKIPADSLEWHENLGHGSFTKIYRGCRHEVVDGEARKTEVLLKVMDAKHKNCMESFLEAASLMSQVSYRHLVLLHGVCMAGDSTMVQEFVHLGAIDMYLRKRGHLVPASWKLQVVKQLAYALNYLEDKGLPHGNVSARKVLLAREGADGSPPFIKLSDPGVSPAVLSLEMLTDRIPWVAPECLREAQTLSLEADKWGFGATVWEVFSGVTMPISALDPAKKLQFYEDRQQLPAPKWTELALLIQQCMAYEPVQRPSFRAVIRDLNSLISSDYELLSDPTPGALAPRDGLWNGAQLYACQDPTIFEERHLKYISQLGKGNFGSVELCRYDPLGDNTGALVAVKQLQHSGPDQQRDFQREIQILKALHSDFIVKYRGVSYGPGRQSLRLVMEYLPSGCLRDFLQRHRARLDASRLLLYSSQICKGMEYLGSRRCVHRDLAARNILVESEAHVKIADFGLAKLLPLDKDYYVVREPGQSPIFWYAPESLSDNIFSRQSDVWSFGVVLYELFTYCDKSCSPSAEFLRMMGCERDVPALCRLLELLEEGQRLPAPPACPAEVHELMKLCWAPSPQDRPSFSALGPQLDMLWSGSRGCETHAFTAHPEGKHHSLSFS
AURKB (Aurora B), sequence (Q96GD4 whole entry): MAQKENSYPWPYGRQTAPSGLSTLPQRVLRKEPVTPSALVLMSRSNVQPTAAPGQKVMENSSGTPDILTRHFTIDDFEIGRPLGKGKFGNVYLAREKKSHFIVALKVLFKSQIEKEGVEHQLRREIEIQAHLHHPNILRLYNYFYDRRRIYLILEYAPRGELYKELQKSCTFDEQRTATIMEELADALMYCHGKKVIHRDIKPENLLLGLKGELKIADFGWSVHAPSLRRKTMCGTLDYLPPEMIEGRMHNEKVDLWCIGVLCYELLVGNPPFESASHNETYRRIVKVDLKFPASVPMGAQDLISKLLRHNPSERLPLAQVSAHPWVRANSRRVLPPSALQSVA
TEK (Tie2), sequence (Q02763 23-1124): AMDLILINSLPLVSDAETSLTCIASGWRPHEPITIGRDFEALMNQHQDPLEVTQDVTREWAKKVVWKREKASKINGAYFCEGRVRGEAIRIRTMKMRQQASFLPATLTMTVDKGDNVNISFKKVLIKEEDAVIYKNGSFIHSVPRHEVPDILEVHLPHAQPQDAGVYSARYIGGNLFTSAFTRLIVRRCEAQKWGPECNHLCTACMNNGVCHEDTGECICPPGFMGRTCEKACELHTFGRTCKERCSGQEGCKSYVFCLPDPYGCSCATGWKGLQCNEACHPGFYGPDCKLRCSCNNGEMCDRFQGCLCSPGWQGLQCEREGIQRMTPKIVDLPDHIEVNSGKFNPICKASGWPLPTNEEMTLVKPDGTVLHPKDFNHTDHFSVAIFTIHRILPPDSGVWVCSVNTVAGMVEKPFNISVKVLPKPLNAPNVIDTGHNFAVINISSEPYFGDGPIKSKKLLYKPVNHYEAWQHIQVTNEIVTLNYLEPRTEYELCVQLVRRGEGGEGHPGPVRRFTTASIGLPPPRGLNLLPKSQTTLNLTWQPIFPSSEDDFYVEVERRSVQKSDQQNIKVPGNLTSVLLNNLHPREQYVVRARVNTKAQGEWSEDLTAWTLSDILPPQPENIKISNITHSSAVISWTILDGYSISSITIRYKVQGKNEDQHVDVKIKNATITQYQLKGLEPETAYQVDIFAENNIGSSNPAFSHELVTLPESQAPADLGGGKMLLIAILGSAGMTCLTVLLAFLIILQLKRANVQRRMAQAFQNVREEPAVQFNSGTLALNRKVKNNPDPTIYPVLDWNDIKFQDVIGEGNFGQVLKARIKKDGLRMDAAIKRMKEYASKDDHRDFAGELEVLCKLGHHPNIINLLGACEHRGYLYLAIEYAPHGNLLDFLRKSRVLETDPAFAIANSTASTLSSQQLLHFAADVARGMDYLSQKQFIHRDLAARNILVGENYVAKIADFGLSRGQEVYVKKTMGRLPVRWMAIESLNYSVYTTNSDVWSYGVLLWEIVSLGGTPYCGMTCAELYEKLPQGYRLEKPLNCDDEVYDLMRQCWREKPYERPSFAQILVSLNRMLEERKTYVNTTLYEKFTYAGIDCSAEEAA
PTK2 (FAK), sequence (Q05397 whole entry): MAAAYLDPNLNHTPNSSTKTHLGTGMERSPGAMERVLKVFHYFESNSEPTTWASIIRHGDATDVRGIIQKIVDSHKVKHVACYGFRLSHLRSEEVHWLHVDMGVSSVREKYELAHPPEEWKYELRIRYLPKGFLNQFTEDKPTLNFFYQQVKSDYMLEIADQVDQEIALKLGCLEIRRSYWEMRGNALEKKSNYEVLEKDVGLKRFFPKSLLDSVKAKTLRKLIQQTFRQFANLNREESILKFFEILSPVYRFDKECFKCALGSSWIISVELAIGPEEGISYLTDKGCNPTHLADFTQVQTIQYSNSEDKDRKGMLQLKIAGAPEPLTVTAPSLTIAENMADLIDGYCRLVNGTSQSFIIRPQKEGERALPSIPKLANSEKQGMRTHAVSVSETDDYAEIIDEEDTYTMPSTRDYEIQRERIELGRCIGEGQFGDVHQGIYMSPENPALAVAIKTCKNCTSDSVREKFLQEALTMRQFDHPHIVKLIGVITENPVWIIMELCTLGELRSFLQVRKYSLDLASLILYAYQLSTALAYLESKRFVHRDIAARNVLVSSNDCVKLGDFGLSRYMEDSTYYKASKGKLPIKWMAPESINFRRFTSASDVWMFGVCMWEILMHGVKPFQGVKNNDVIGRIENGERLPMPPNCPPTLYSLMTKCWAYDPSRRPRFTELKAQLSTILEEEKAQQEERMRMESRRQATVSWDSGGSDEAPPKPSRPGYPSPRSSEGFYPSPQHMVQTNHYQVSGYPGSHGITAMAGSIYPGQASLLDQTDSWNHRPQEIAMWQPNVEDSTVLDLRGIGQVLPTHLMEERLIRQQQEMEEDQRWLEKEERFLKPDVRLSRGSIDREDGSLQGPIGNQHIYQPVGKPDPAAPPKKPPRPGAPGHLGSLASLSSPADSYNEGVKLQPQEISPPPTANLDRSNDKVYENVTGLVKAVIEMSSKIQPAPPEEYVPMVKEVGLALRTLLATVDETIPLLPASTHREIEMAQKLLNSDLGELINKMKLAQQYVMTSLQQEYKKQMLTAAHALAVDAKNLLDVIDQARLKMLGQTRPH
LCK, sequence (P06239 whole entry): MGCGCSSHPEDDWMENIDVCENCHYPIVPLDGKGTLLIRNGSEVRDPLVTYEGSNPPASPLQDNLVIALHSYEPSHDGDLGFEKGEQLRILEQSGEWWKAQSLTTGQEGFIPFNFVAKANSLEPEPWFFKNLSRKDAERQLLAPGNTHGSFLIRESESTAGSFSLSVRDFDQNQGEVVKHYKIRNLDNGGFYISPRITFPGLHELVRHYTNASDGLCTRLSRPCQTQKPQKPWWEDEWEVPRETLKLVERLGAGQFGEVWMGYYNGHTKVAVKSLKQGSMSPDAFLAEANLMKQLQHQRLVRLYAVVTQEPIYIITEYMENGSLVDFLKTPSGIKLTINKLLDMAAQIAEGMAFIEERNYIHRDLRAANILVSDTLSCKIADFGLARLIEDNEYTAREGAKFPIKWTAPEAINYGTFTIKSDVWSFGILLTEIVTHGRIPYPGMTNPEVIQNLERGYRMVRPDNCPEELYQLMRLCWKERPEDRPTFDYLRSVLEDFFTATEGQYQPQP
FGFR2, sequence (P21802 22-821): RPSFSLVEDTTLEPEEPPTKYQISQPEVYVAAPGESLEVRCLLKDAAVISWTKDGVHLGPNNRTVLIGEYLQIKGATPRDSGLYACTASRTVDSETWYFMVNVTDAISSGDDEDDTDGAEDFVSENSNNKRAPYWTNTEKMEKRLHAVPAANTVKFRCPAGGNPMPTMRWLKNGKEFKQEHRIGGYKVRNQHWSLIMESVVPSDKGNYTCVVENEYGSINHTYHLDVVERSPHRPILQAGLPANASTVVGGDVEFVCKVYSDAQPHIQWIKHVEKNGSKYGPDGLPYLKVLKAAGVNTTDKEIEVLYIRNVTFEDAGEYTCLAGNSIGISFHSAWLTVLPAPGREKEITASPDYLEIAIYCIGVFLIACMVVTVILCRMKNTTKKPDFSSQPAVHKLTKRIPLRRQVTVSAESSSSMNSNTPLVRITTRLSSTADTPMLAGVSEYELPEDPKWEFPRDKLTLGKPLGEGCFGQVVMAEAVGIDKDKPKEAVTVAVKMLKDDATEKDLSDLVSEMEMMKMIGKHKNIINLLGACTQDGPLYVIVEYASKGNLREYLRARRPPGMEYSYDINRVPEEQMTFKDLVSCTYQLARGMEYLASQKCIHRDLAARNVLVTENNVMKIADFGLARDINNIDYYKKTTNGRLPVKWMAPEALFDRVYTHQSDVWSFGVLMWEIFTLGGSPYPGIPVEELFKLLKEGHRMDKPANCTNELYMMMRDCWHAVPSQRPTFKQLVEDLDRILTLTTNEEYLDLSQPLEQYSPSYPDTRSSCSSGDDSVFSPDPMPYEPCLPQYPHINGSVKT

Turning to `CN1CCN(Cc2cccc(-c3cnc4[nH]cc(-c5cc(NC(=O)Nc6ccccc6)ccc5F)c4c3)c2)CC1` [Compound 3], the “activation (phosphorylation) of the Y779 residue of AxL compared to the control (DMSO)” value (from here on “activation … compared to the control (DMSO)”) at Axl was “much lower or even zero activation”. At AURKA (Aurora A), the “Percentage inhibition AURKA (Aurora A)” value was 14%. At AURKB (Aurora B), the “Percentage inhibition AURKB (Aurora B)” value was 38%. Further, the “Percentage inhibition CSF1R (FMS)” value at CSF1R (FMS) is 26%. For the same molecule, on FGFR2, the “Percentage inhibition FGFR2” value came out at 37%. Also, the “Percentage inhibition JAK3” value at JAK3 amounted to 13%. Moreover, the “Percentage inhibition KDR (VEGFR2)” value at KDR (VEGFR2) amounted to 55%. In addition, the “Percentage inhibition LCK” value on LCK worked out at 42%. Moreover, the “Percentage inhibition PRKAA (PKA)” value on PRKAA (PKA) came to 7%. For the same molecule, the “Percentage inhibition PTK2 (FAK)” value at PTK2 (FAK) was 24%. Further, the “Percentage inhibition ROS1” value at ROS1 is recorded as 18%. The “Percentage inhibition TEK (Tie2)” value on TEK (Tie2) came to 27%. Besides, the “Percentage inhibition ZAP70” value on ZAP70 is 5%. Further, the “concentration at which infection of the Hela cells by the strain ZIKV BeH-8 is prevented” value (from here on “concentration at which infection”) in the assay with ZIKV BeH8 strain is given as “greater than or equal to 150 nM”. For the same molecule, in [1], the “infection of the VeroE6 cells by the SARS-COV-2 virus” value (“infection of the VeroE6 cells” for short) is reported as “prevent the infection”.

In general, IC50 refers to the concentration that gives 50% inhibition. Higher therefore signals lower potency. Take `CN1CCN(Cc2cccc(-c3cnc4[nH]cc(-c5cc(CNCCc6ccc(O)cc6)ccc5F)c4c3)c2)CC1` [Compound 1]: the “activation … compared to the control (DMSO)” value on Axl was “much lower or even zero activation”. In addition, the “Percentage inhibition AURKA (Aurora A)” value at AURKA (Aurora A) was determined as 14%. Further, the “Percentage inhibition AURKB (Aurora B)” value at AURKB (Aurora B) was 41%. Further, the “Percentage inhibition CSF1R (FMS)” value on CSF1R (FMS) is 62%. The “Percentage inhibition FGFR2” value at FGFR2 is on record as 58%. In addition, at JAK3, the “Percentage inhibition JAK3” value is listed as 42%. Also, the “Percentage inhibition KDR (VEGFR2)” value at KDR (VEGFR2) came to 85%. Further, at LCK, the “Percentage inhibition LCK” value is 50%. Moreover, the “Percentage inhibition PRKAA (PKA)” value on PRKAA (PKA) is given as 8%. For the same molecule, the “Percentage inhibition PTK2 (FAK)” value at PTK2 (FAK) was 22%. Further, the “Percentage inhibition ROS1” value at ROS1 came out at 64%. For the same molecule, at TEK (Tie2), the “Percentage inhibition TEK (Tie2)” value worked out at 13%. The “Percentage inhibition ZAP70” value on ZAP70 amounted to 4%. In the assay on ZIKV BeH8 strain, the “concentration at which infection” value is listed as “greater than or equal to 150 nM”, the IC50 is 198 nM and the “active on infectious model ZIKV” value is listed as “ACTIVE”. Moreover, in [1], the “infection of the VeroE6 cells” value was “prevent the infection” and half-maximal inhibition (IC50) required 77 nM.

In the case of `CN1CCN(Cc2cccc(-c3cnc4[nH]cc(-c5cc(CNCc6ccccc6)ccc5F)c4c3)c2)CC1` [Compound 2], the “activation … compared to the control (DMSO)” value on Axl is recorded as “much lower or even zero activation”. The “Percentage inhibition AURKA (Aurora A)” value at AURKA (Aurora A) was 11%. Also, at AURKB (Aurora B), the “Percentage inhibition AURKB (Aurora B)” value is reported as 20%. The “Percentage inhibition CSF1R (FMS)” value on CSF1R (FMS) is listed as 41%. The “Percentage inhibition FGFR2” value on FGFR2 came to 25%. The “Percentage inhibition JAK3” value at JAK3 is given as 18%. The “Percentage inhibition KDR (VEGFR2)” value on KDR (VEGFR2) is given as 68%. At LCK, the “Percentage inhibition LCK” value amounted to 63%. For the same molecule, the “Percentage inhibition PRKAA (PKA)” value on PRKAA (PKA) came out at 6%. For the same molecule, the “Percentage inhibition PTK2 (FAK)” value on PTK2 (FAK) stood at 33%. Further, the “Percentage inhibition ROS1” value at ROS1 is 77%. Moreover, the “Percentage inhibition TEK (Tie2)” value on TEK (Tie2) turned out to be 88%. Also, the “Percentage inhibition ZAP70” value on ZAP70 worked out at 4%. For the same molecule, in the assay with ZIKV BeH8 strain, the “concentration at which infection” value is listed as “greater than or equal to 150 nM”, inhibition was half-maximal at 25 nM (IC50) and the “active on infectious model ZIKV” value is given as “ACTIVE”. In assay [1], the “infection of the VeroE6 cells” value is “prevent the infection” and the midpoint of inhibition, the IC50, lay at 289 nM.
